According to US10722514B2 (FLX Bio, Inc., priority 2017, dated 2020):
Structures can show the parent of a compound that is named as a salt.

Each compound was assayed against T1, recombinant full-length USP7 (Homo sapiens, UniProt Q93009) (assay: USP7-mediated ubiquitin-rhodamine cleavage assay). Settings: recombinant full-length USP7 62 pM; ubiquitin-rhodamine 100 nM; 30-minute incubation with compound, 1 hour reaction at room temperature; read-out: Potency: USP7 IC50.
T1 construct: A 25 μl reaction volume containing recombinant full-length USP7 (62 pM)
Format: biochemical
Outline: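 After compound and enzyme (62 pM) sat together 30 min at RT, 100 nM fluorogenic ubiquitin-rhodamine substrate was added for 1 h protected from light. Acetic acid quenched the reaction prior to the fluorescence read.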

T1 sequence (Q93009 whole entry): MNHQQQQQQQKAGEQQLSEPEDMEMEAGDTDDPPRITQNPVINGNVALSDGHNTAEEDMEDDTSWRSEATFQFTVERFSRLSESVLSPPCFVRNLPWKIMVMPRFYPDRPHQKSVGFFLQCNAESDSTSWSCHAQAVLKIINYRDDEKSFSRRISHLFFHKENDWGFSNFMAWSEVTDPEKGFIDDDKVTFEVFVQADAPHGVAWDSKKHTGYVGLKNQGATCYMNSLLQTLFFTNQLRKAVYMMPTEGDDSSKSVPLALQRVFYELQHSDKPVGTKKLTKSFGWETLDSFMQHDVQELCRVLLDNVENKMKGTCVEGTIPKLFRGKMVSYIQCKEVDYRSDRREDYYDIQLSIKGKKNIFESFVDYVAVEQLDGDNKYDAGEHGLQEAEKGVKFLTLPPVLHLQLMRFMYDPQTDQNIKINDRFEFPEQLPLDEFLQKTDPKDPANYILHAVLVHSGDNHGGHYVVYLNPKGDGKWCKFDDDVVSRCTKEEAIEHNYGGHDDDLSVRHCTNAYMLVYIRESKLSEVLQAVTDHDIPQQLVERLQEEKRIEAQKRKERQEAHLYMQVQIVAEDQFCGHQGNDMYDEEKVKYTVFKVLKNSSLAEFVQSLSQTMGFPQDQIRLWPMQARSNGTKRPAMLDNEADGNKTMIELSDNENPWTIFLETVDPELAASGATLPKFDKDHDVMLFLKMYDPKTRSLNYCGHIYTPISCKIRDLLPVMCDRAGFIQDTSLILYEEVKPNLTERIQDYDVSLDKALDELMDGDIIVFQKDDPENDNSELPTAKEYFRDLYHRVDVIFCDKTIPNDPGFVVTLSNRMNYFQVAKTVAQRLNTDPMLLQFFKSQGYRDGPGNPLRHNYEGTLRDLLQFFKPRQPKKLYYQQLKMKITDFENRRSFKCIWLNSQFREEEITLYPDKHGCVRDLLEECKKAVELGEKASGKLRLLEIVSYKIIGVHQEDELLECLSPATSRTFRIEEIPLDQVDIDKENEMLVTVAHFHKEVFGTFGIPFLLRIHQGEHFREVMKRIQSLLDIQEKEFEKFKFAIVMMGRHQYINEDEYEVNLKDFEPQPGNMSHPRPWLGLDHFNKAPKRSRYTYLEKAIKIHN

Row | IC50 [nM] | SMILES
1 | < 1000 | Cc1cc(Cl)cc(-c2ccnc3cc(CN4C(=O)C5C(C4=O)C5(C)C)sc23)c1OC1CNCC1(C)C (stereo not shown) [Example 369, 3-[[7-[5-chloro-2-(4,4-dimethylpyrrolidin-3-yl)oxy-3-methyl-phenyl]thieno[3.2-b]pyridin-2-yl]methyl]-6,6-dimethyl-3-azabicyclo[3.1.0]hexane-2,4-dione]
2 | < 1000 | Cc1cc(Cl)cc(-c2ncnc3cc(CN4C(=O)C5C(C4=O)C5(C)C)sc23)c1O[C@H]1CC[C@H](C)NC1 (stereo partly drawn) [Example 339, 3-[[4-[5-chloro-3-methyl-2-[[(3S,6S)-6-methyl-3-piperidyl]oxy]phenyl]thieno[3,2-d]pyrimidin-6-yl]methyl]-6,6-dimethyl-3-azabicyclo[3.1.0]hexane-2,4-dione dihydrochloride]
3 | < 1000 | Cc1cc(Cl)cc(-c2ccnc3cc(CN4C(=O)C5C(C4=O)C5(C)C)sc23)c1O[C@H]1CCNC[C@@H]1F (stereo partly drawn) [Example 383, 3-[[7-[5-chloro-2-[[(3S,4S)-3-fluoro-4-piperidyl]oxy]-3-methyl-phenyl]thieno[3,2-b]pyridin-2-yl]methyl]-6,6-dimethyl-3-azabicyclo[3.1.0]hexane-2,4-dione; 2,2,2-trifluoroacetic acid]

The remaining lines, values behind:

Row | SMILES | IC50 [nM]
4 | Cc1cc(Cl)cc(-c2ccnc3cc(CN4C(=O)CCC4=O)sc23)c1O[C@@H]1C[C@H]2CN[C@@H]1C2 [Example 298, 1-[[7-[2-[[(1S,4R,5R)-3-azabicyclo[2.2.1]heptan-5-yl]oxy]-5-chloro-3-methyl-phenyl]thieno[3,2-b]pyridin-2-yl]methyl]pyrrolidine-2,5-dione] | < 1000
5 | Cc1cc(Cl)cc(-c2ccnc3cc(Cn4c(=O)ccn(C)c4=O)sc23)c1O[C@H]1CCCNCC1 [Example 8, (S)-3-((7-(2-(Azepan-4-yloxy)-5-chloro-3-methylphenyl)thieno[3,2-b]pyridin-2-yl)methyl)-1-methylpyrimidine-2,4(1H,3H)-dione] | < 1000
6 | Cc1cc(Cl)cc(-c2ccnc3cc(Cn4c(=O)ccn(C)c4=O)sc23)c1OC1CCN(C2COC2)CC1 [Example 255, 3-((7-(5-Chloro-3-methyl-2-((1-(oxetan-3-yl)piperidin-4-yl)oxy)phenyl)thieno[3,2-b]pyridin-2-yl)methyl)-1-methylpyrimidine-2,4(1H,3H)-dione] | < 1000
7 | Cc1cc(Cl)cc(-c2ccnc3c(F)c(CO)sc23)c1O[C@@H]1CNC[C@@H]1F [Example 156, (7-(5-Chloro-2-(((3R,4S)-4-fluoropyrrolidin-3-yl)oxy)-3-methylphenyl)-3-fluorothieno[3,2-b]pyridin-2-yl)methanol] | 1000 to 10000
8 | CCC(O)c1cc2nccc(-c3cc(Cl)cc(C)c3OC3CCN(C)CC3)c2s1 (stereo not shown) [Example 188, 1-(7-(5-Chloro-3-methyl-2-((1-methylpiperidin-4-yl)oxy)phenyl)thieno[3,2-b]pyridin-2-yl)propan-1-ol] | 1000 to 10000
9 | Cc1cc(Cl)cc(-c2ccnc3cc(CO)sc23)c1OC(C)C1CNC1 (stereo not shown) [Example 32, (7-(2-(1-(Azetidin-3-yl)ethoxy)-5-chloro-3-methylphenyl)thieno[3,2-b]pyridin-2-yl)methanol] | 10000 to 30000
10 | CCC(O)c1cc2ncnc(-c3cc(Cl)cc(C)c3OC3CCNCC3)c2s1 (stereo not shown) [Example 181, 1-(4-(5-Chloro-3-methyl-2-(piperidin-4-yloxy)phenyl)thieno[3,2-d]pyrimidin-6-yl)propan-1-ol] | 1000 to 10000
11 | Cc1cc(Cl)cc(-c2ccnc3cc(CCOC4=NS(=O)(=O)c5ccccc54)sc23)c1O[C@@H]1CNC[C@@H]1F [Example 140, 3-(2-(7-(5-Chloro-2-(((3R,4S)-4-fluoropyrrolidin-3-yl)oxy)-3-methylphenyl)thieno[3,2-b]pyridin-2-yl)ethoxy)benzo[d]isothiazole 1,1-dioxide] | 10000 to 30000
12 | Cc1cc(Cl)cc(-c2ccnc3cc(CO)sc23)c1OCCC1CNC1 [Example 30, (7-(2-(2-(Azetidin-3-yl)ethoxy)-5-chloro-3-methylphenyl)thieno[3,2-b]pyridin-2-yl)methanol] | > 30000
13 | Cc1cc(Cl)cc(-c2ccnc3cc(CN4C(=O)CCC4=O)sc23)c1OC1CCNCC1 [Example 210, 1-((7-(5-Chloro-3-methyl-2-(piperidin-4-yloxy)phenyl)thieno[3,2-b]pyridin-2-yl)methyl)pyrrolidine-2,5-dione] | < 1000
14 | Cc1cc(Cl)cc(-c2ccnc3cc(Cn4c(=O)ccn(CC(F)(F)F)c4=O)sc23)c1O[C@H]1CNCC[C@H]1C [Example 280, 3-((7-(5-Chloro-3-methyl-2-(((3R,4R)-4-methylpiperidin-3-yl)oxy)phenyl)thieno[3,2-b]pyridin-2-yl)methyl)-1-(2,2,2-trifluoroethyl)pyrimidine-2,4(1H,3H)-dione] | < 1000
15 | Cc1cc(Cl)cc(-c2ccnc3cc(CN4C(=O)CCC4=O)sc23)c1O[C@H]1CC[C@H](N)C1 [Example 127, 1-((7-(2-(((1S,3S)-3-Aminocyclopentyl)oxy)-5-chloro-3-methylphenyl)thieno[3,2-b]pyridin-2-yl)methyl)pyrrolidine-2,5-dione] | < 1000
16 | Cc1cc(Cl)cc(-c2ccnc3cc(CO)sc23)c1O[C@H]1CNC[C@H]1F [Example 67, (7-(5-Chloro-2-(((3S,4R)-4-fluoropyrrolidin-3-yl)oxy)-3-methylphenyl)thieno[3,2-b]pyridin-2-yl)methanol] | 10000 to 30000
17 | Cc1cc(C#N)cc(-c2ccnc3ccsc23)c1OCC1(C#N)CNC1 [Example 9, 3-((4-Cyano-2-methyl-6-(thieno[3,2-b]pyridin-7-yl)phenoxy)methyl)azetidine-3-carbonitrile] | < 1000
18 | Cc1cc(C(F)(F)F)cc(-c2ccnc3cc(Cn4c(=O)[nH]cc(F)c4=O)sc23)c1O[C@@H]1CNC[C@@H]1F [Example 136, 5-Fluoro-3-((7-(2-(((3R,4S)-4-fluoropyrrolidin-3-yl)oxy)-3-methyl-5-(trifluoromethyl)phenyl)thieno[3,2-b]pyridin-2-yl)methyl)pyrimidine-2,4(1H,3H)-dione] | < 1000
19 | Cc1cc(Cl)cc(-c2ccnc3cc(Cn4c(=O)ccn(CC(F)F)c4=O)sc23)c1O[C@H]1CCCNC1 [Example 284, 3-[[7-[5-chloro-3-methyl-2-[[(3S)-3-piperidyl]oxy]phenyl]thieno[3,2-b]pyridin-2-yl]methyl]-1-(2,2-difluoroethyl)pyrimidine-2,4-dione; 2,2,2-trifluoroacetic acid] | < 1000
20 | CCC(O)c1cc2nccc(-c3cc(Cl)cc(C)c3O[C@H]3C[C@H]4CC[C@@H](C3)N4)c2s1 (stereo partly drawn) [Example 199, 1-(7-(2-(((1R,3r,5S)-8-Azabicyclo[3.2.1]octan-3-yl)oxy)-5-chloro-3-methylphenyl)thieno[3,2-b]pyridin-2-yl)propan-1-ol] | 1000 to 10000

Same assay, conditions: recombinant full-length USP7 62 pM; ubiquitin-rhodamine 100 nM; 30-minute pre-incubation, 1 hour reaction at room temperature; read-out: Potency (USP7 IC50)

Row | IC50 [nM] | SMILES
21 | < 1000 | Cc1cc(Cl)cc(-c2ccnc3cc(Cn4c(=O)ccn(CC(F)(F)F)c4=O)sc23)c1O[C@@H]1CCNC[C@@H]1C [Example 549, 3-[[7-[5-chloro-3-methyl-2-[[(3S,4R)-3-methyl-4-piperidyl]oxy]phenyl]thieno[3,2-b]pyridin-2-yl]methyl]-1-(2,2,2-trifluoroethyl)pyrimidine-2,4-dione]
22 | < 1000 | Cc1cc(Cl)cc(-c2ccnc3cc(Cn4c(=O)ccn(CC(F)(F)F)c4=O)sc23)c1OC1CCNCC1 [Example 568, 3-[[7-[5-chloro-3-methyl-2-(4-piperidyloxy)phenyl]thieno[3,2-b]pyridin-2-yl]methyl]-1-(2,2,2-trifluoroethyl)pyrimidine-2,4-dione]
23 | < 1000 | Cc1cc(Cl)cc(-c2ccnc3cc(Cn4c(=O)ccn(C)c4=O)sc23)c1O[C@H]1CCN(C)C[C@@H]1F [Example 472, 3-[[7-[5-chloro-2-[[(3S,4S)-3-fluoro-1-methyl-4-piperidyl]oxy]-3-methyl-phenyl]thieno[3,2-b]pyridin-2-yl]methyl]-1-methyl-pyrimidine-2,4-dione; 2,2,2-trifluoroacetic acid]
24 | < 1000 | Cc1cc(Cl)cc(-c2ncnc3cc(Cn4c(=O)ccn(CC(F)(F)F)c4=O)sc23)c1OC1CC2CNC1C2 (stereo not shown) [Example 539, 3-[[4-[2-(3-azabicyclo[2.2.1]heptan-5-yloxy)-5-chloro-3-methyl-phenyl]thieno[3,2-d]pyrimidin-6-yl]methyl]-1-(2,2,2-trifluoroethyl)pyrimidine-2,4-dione]
25 | < 1000 | Cc1cc(Cl)cc(-c2ncnc3cc(Cn4c(=O)ccn(CC(F)(F)F)c4=O)sc23)c1OC1CCNCC1 [Example 527, 3-[[4-[5-chloro-3-methyl-2-(4-piperidyloxy)phenyl]thieno[3,2-d]pyrimidin-6-yl]methyl]-1-(2,2,2-trifluoroethyl)pyrimidine-2,4-dione]
26 | < 1000 | Cc1cc(Cl)cc(-c2ccnc3cc(Cn4c(=O)ccn(CC(F)(F)F)c4=O)sc23)c1OC1(C)CCNCC1 [Example 618, 3-[[7-[5-chloro-3-methyl-2-[(4-methyl-4-piperidyl)oxy]phenyl]thieno[3,2-b]pyridin-2-yl]methyl]-1-(2,2,2-trifluoroethyl)pyrimidine-2,4-dione]
27 | < 1000 | Cc1cc(Cl)cc(-c2ccnc3cc(Cn4c(=O)c(C)cn(C)c4=O)sc23)c1O[C@H]1CCCNC1 [Example 478, 3-[[7-[5-chloro-3-methyl-2-[[(3S)-3-piperidyl]oxy]phenyl]thieno[3,2-b]pyridin-2-yl]methyl]-1,5-dimethyl-pyrimidine-2,4-dione; 2,2,2-trifluoroacetic acid]
28 | < 1000 | Cc1cc(Cl)cc(-c2ncnc3cc(Cn4c(=O)ccn(CC(F)(F)F)c4=O)sc23)c1O[C@H]1CCCNCC1 [Example 580, 3-[[4-[2-[(4S)-azepan-4-yl]oxy-5-chloro-3-methyl-phenyl]thieno[3,2-d]pyrimidin-6-yl]methyl]-1-(2,2,2-trifluoroethyl)pyrimidine-2,4-dione; 2,2,2-trifluoroacetic acid]
